The data set in a line: Plasma hesperetin levels after ingestion (FIG. 2). Type of data set: in vivo. The source says:
FIG. 2 is a graph comparing the plasma hesperetin levels depending on whether hesperetin-7-glucoside alone is ingested, whether hesperidin alone is ingested or whether a composition according to the present invention is consumed.
Without wishing to be bound by theory, it is thought that this is due to the presence of enzymes which are able to cleave the glucose moiety off, such that hesperetin is readily absorbable.
Without wishing to be bound by theory, it is thought that this is due to the presence of enzymes able to cleave the rutinose moiety of hesperidin only at a later stage of passage through the gastro-intestinal tract.
Thus, the compositions of the present invention advantageously provide a plasma level of hesperetin which is sustained over a longer period of time (cf. FIG. 2).
Indeed, after the ingestion of the compositions of the present invention, the hesperetin plasma levels are maintained for a sustained period of time (FIG. 2).

SMILES strings stand for the structures.

As to `COc1ccc([C@@H]2CC(=O)c3c(O)cc(O[C@@H]4O[C@H](CO[C@@H]5O[C@@H](C)[C@H](O)[C@@H](O)[C@H]5O)[C@@H](O)[C@H](O)[C@H]4O)cc3O2)cc1O` [hesperidin], the “plasma level of hesperetin” value (after ingestion, FIG. 2) is “appears only later and to a smaller extent”.

For the compound `COc1ccc(C2CC(=O)c3c(O)cc(OC4OC(CO)C(O)C(O)C4O)cc3O2)cc1O` (centres unmarked) [hesperetin-7-glucose, hesperetin-7-glucoside], the “plasma level of hesperetin” value (in vivo) is on record as “sharp peak shortly after ingestion”.

Source of the values: patent US8475786B2, “Long-lasting absorption of flavonoids” (Nestec S.A., priority 2006, dated 2013).
